The results in this text go back to patent US8546377B2 (AbbVie Inc., priority 2009, dated 2013).

One assay has as its target T1, h-5-HT6 receptor (Homo sapiens, UniProt P50406).
T1 construct: expressed in transfected cells; host or cells: HEK293 cells (membrane preparation)
Kind of assay: Human 5-HT6 receptor radioligand binding assay ([3H]-LSD, HEK293 membranes). The conditions noted are these: HEK293 membranes, 1 nM [3H]-lysergic acid diethylamide, 3.5 hours at room temperature; read-out: Ki (μM), 5-HT6 Agonist Site Radioligand Binding. On the procedure:
(iv) Human 5-HT6 Receptor Radioligand Binding Assay
Preparation of Membranes by Ultrasonic Treatment and Differential Centrifugation
Cells from stable clonal cell lines expressing the corresponding receptor (5-HT6) were washed with PBS (without Ca^++, Mg^++) and harvested in PBS with 0.02% EDTA. The cells were collected by centrifugation at 500 g for 10 minutes at 4° C., washed with PBS and centrifuged (500 g, 10 minutes at 4° C.). The pellets were stored at −80° C. until use. For membrane preparation, the thawed cell pellet was resuspended in ice-cold sucrose buffer (0.25 M sucrose, 10 mM HEPES (pH 7.4), 1 mM phenylmethylsulfonyl fluoride (PMSF) in DMSO, 5 μg/ml Pepstatin-A, 3 mM EDTA, 0.025% Bacitracin) and homogenized with a Branson Sonifier W-250 (Settings: Timer 4; Output Control 3; Duty Cycle constant; 2 to 3 cycles). Cell disruption was checked with the aid of a microscope. Remaining unbroken cells were pelleted at 1,000 g for 10 minutes at 4° C. The sucrose buffer supernatant was then centrifuged at 60,000 g for 1 hour at 4° C. (Beckman Ultrazentrifuge XL 80). The pellet was resuspended in 30 mL of ice-cold Tris buffer (20 mM TRIS (pH 7.4), 5 μg/mL Pepstatin A, 0.1 mM PMSF, 3 mM EDTA) by pipetting through a 10 mL serological pipet and centrifuged for 1 hour at 4° C. at 60,000 g. A final resuspension was performed in a small volume of ice-cold Tris buffer (see above) by pressing through a serological pipet followed by ultrasonic treatment with a Branson Sonifier W-250 (Settings: Timer 1; Output Control 3; Duty Cycle constant; 1 cycle). Protein concentration was determined (BCA-Kit; Pierce) and aliquots stored at −80° C. or in liquid nitrogen for long-term storage.
Receptor Binding Experiments
All receptor binding experiments were carried out in the corresponding assay buffer in a total volume of 200 μL in the presence of various concentrations of test compound (10^−5 M to 10^−9 M, tenfold serial dilution, duplicate determinations). The assays were terminated by filtration on polyethylenimine (PEI 0.1% or 0.3%) presoaked Packard Unifilter Plates (GF/C or GF/B) with a Tomtec MachIII U 96 well-plate harvester. After the plates had been dried for 2 hours at 55° C. in a drying chamber scintillation cocktail (BetaPlate Scint; PerkinElmer) was added. Radioactivity was measured in a Microbeta Trilux two hours after the addition of the scintillation mixture.
5-HT6 Receptor Binding Assay
HEK293 cells stably expressing the h-5-HT6 receptor (NCBI Reference Sequence XM 001435) were cultured in RPMI1640 medium supplemented with 25 mM HEPES, 10% fetal calf serum and 1-2 mM glutamine. The membrane preparation was performed as described above. […] On the day of the assay, the membranes were thawed, diluted in assay buffer (50 mM Tris-HCl, 5 mM CaCl2, 0.1% ascorbic acid, 10 μM pargyline, pH 7.4) to a concentration of 8 μg protein/assay and homogenized by gentle vortexing. […] Non-specific binding was defined with 1 μM methiothepin. The binding reaction was carried out for 3.5 hours at room temperature. During the incubation, the plates were shaken on a plate shaker at 100 rpm and terminated by filtration on Packard Unifilter GF/C (0.1% PEI) plates, followed by 2 wash cycles with ice-cold 50 mM Tris-HCl, 5 mM CaCl2.
Data derived from liquid scintillation counting were analyzed by iterative non-linear regression analysis with the use of the Statistical Analysis System (SAS): a program similar to “LIGAND” as described by Munson and Rodbard (Anal. Biochem. 1980, 107, 220-239). Fitting was performed according to formulae described by Feldman (Anal. Biochem. 1972, 48, 317-338). IC50, nH and Ki values were expressed as geometrical mean.
The results of the receptor binding studies are expressed as receptor binding constants Ki(5-HT6) as described herein before, and given in Table 5.

In a further assay the target is T2, 5HT2B receptors (Homo sapiens, UniProt P41595).
T2 construct: expressed in transfected cells; host or cells: CHO-K1 cells
Kind of assay: Human 5-HT2B functional assay in CHO-K1 cells (calcium flux, FLIPR). The class given is cell-based. The following applies: CHO-K1 cells over-expressing 5HT2B, calcium flux; read-out: EC50 (μM), 5-HT2B Agonist Activity. The gist of the method: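 EC50 came from a 4-parameter logistic fit, with Emax expressed relative to serotonin, of intracellular Ca2+ rises read on FLIPR at 480/530 nm, 25° C, over 3 min. Compounds ran from 10 μM in six 1:10 steps (0.2% DMSO) on serum-starved CHO-K1 transfectants pre-loaded 60 min with Ca4 dye and probenecid.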
(In general: A change in cytosolic calcium serves as a functional read-out for many receptors and channels.)

T2 sequence (P41595 whole entry): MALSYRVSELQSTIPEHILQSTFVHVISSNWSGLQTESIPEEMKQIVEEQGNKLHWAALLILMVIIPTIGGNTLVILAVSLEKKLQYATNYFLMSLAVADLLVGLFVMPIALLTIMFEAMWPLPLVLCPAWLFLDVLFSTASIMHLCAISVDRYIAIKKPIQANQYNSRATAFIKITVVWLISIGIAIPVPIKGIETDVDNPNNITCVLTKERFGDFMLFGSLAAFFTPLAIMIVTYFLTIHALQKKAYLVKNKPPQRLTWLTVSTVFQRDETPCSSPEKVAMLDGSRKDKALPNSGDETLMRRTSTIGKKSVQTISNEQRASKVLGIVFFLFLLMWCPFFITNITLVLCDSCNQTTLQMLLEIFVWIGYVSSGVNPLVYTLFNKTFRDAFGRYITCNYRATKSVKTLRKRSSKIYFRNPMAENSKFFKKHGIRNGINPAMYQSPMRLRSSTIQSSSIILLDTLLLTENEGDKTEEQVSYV
T1 sequence (P50406 whole entry): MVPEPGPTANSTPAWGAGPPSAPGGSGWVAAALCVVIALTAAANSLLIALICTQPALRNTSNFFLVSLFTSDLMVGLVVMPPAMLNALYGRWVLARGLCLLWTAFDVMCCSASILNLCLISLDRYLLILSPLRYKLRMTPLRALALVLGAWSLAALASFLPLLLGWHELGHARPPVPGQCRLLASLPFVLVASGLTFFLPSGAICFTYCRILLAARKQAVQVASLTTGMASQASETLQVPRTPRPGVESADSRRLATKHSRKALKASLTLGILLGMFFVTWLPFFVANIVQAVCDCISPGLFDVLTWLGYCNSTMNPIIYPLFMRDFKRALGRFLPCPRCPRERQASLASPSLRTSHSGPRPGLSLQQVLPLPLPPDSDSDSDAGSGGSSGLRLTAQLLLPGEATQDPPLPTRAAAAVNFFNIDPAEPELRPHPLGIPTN

One may read the Ki as a measure of affinity in units of concentration, obtained from inhibition or displacement. As a reminder, the EC50 is the concentration needed to bring the measured effect to its halfway point. Turning to `O=C1NCC2CNCCN2c2ccc(NS(=O)(=O)c3ccccc3)cc21` (centres unmarked) [Example 48, N-(7-oxo-1,2,3,4,4a,5,6,7-octahydropyrazino[1,2-a][1,4]benzodiazepin-9-yl)benzenesulfonamide], the Ki on h-5-HT6 receptor is 0.045 µM. Moreover, the EC50 at 5HT2B receptors was > 10 µM.
